Publication PMC7827628, “Effect of Sulfonamides and Their Structurally Related Derivatives on the Activity of ι-Carbonic Anhydrase from Burkholderia territorii” (International Journal of Molecular Sciences, 2021)

Target: BteCAι
Assay: stopped-flow CO2 hydration assay
Type: biochemical, Burkholderia territorii
Settings: CO2 substrate; 20 °C, pH 7.5, 10 mM HEPES (methods give 20 mM TRIS pH 8.3, 20 mM NaClO4); 15 min preincubation

| Compound | Ki [nM] |
| --- | --- |
| Cc1onc(-c2ccccc2)c1-c1ccc(S(N)(=O)=O)cc1 [VLX, valdecoxib] | 934 |
| NS(=O)(=O)c1cc2c(cc1Cl)NCNS2(=O)=O [HCT, hydrochlorothiazide] | 780 |
| O=C1NS(=O)(=O)c2ccccc21 [SAC, Saccharin] | 7080 |
| CCN1CCCC1CNC(=O)c1cc(S(N)(=O)=O)ccc1OC (centres unmarked) [SLP, Sulpiride] | 958 |
| NS(=O)(=O)Cc1noc2ccccc12 [ZNS, Zonisamide] | 806 |
| Cc1ccc(-c2cc(C(F)(F)F)nn2-c2ccc(S(N)(=O)=O)cc2)cc1 [CLX, celecoxib] | 960 |
| NS(=O)(=O)c1nnc(NS(=O)(=O)c2ccccc2)s1 [BZA, benzolamide] | 724 |
| NS(=O)(=O)c1cc(Cl)c(Cl)c(S(N)(=O)=O)c1 [DCP, dichlorphenamide] | 825 |
| Nc1ccc(S(N)(=O)=O)cc1Br [compound 9, 9] | 96 |
| NS(=O)(=O)c1ccc(N2CCCCS2(=O)=O)cc1 [SLT, sulthiame] | 954 |
| NS(=O)(=O)NCCNc1nonc1/C(=N/O)Nc1ccc(F)c(Br)c1 [EPA, epacadostat] | 955 |
| NCc1ccc(S(N)(=O)=O)cc1 [compound 5, 5] | 97 |
| NS(=O)(=O)c1ccc(S(=O)(=O)Nc2cccc3c(Cl)c[nH]c23)cc1 [IND, Indisulam] | 638 |
| CC1(C)O[C@@H]2[C@@H](CO[C@@]3(COS(N)(=O)=O)OC(C)(C)O[C@@H]23)O1 [TPM, topiramate] | 787 |
| CCN[C@H]1CN(CCCOC)S(=O)(=O)c2sc(S(N)(=O)=O)cc21 [BRZ, brinzolamide] | 3700 |
| NC(N)=Nc1nc(CSCCC(N)=NS(N)(=O)=O)cs1 [FAM, Famotidine] | 943 |
| Nc1nccc(Nc2ccc(S(N)(=O)=O)cc2)n1 [compound 19, 19] | 93 |
